Columns and labels:
[1] = tested on: mouse proximal tubule cells; test: Cell proliferation test (XTT); type: cell-based; settings: 24 hours, 1% FBS
Description: Specifically, the cell proliferation test was performed by treating mouse proximal tubule cells with trypsin, the cells were put in a 96-well plate at 1×10^3 cells for each well, cultured for 24 hours at 37° C., the culture medium was removed, and each of AGK2, AK-1, cisplatin, cisplatin+AGK2, and cisplatin+AK-1 was treated with a culture medium containing 1% FBS. After culturing for 24 hours at 37° C., the degree of cell proliferation was measured using a cell proliferation kit (Cell proliferation Kit II, XTT, Roche, Mannheim, Germany). As cells proliferate, the amount of color-developing material of mitochondria within cells increases, and thus the absorbance increases. Therefore, the proliferation of the mouse proximal tubule cells was determined based on the absorbance, and the results are provided in FIG. 34.

[2] = tested on: mouse proximal tubule cells; test: Cell damage caused by cisplatin (number of adhesion cells, microscopy); type: cell-based
Description: To confirm if an SIRT2 inhibitor has an effect of inhibiting cell damage caused by cisplatin, the effects of AGK2 and AK-1, which are SIRT2 inhibitors, when the mouse proximal tubule cells were treated with cisplatin were examined. Specifically, mouse proximal tubule cells were treated with AGK2 (10 μM) and AK-1 (10 μM), which are SIRT2 inhibitors, 30 minutes prior to being treated with cisplatin (20 μg/ml) for 48 hours, and the cells were visualized by a Zeiss Z1 microscope.

CXCL2 = CXCL2 mRNA expression by qRT-PCR in LPS-treated mouse proximal tubule cells; type: cell-based; settings: AK-1 10 μM 30 minutes prior to 1-hour LPS (10 μg/ml); compared with LPS-increased expression
Description: (§1) Mouse proximal tubule cells, which were donated by Dr Lloyd G. Cantley (Yale University School of Medicine, New Haven, Conn., US), were prepared by culturing, in an α-MEM medium containing added fetal bovine serum at 10% (vol/vol), under conditions including a humidified atmospheric condition of 5% CO2 and 95% air and a temperature condition of 37° C.
(§2) To remove the SIRT2 gene from the cells, siRNA (100 pmol, Dharmacon ON-TARGETplus SMARTpool, Dharmacon Inc., CO, US) and 10 μl Lipofectamine® 2000 (Invitrogen™, Carlsbad, Calif., US) were diluted in an Opti-MEM medium for the cell treatment, and, 7 hours later, the cells were transferred into a cell culture medium for cell culture. 2 days after the initiation of the cell culture, the cells were collected and a decrease in an SIRT2 protein was observed therefrom.
1, 3, and 6 hours after the treatment with the LPS and the CB following the SIRT2 siRNA treatment, the cell culture medium, RNA, and proteins were collected to perform quantitative real-time PCR (qRT-PCR) and an enzyme linked immunosorbent assay. […]
(§3) Mouse proximal tubule cells were treated with AK-1 (10 μM), which is an SIRT2 inhibitor, 30 minutes prior to a 1-hour treatment with an LPS (10 μg/ml). The cells were collected and CXCL2 and CCL2 mRNA expression levels thereof were determined through qRT-PCR.

CCL2 = CCL2 mRNA expression by qRT-PCR in LPS-treated mouse proximal tubule cells; type: cell-based; settings: AK-1 10 μM 30 minutes prior to 1-hour LPS (10 μg/ml); compared with LPS-increased expression
Description: as §1, §2
1, 3, and 6 hours after the treatment with the LPS and the CB following the SIRT2 siRNA treatment, the cell culture medium, RNA, and proteins were collected to perform quantitative real-time PCR (qRT-PCR) and an enzyme linked immunosorbent assay.
The CCL2 expression pattern was observed by the method of Example 4.
as §3

[3] = Survival rate after cisplatin administration; type: in vivo, mouse; settings: control group (SIRT2+/+) administered cisplatin
From the text: Based on the result, it can be seen that the knocking out an SIRT2 gene inhibits kidney injuries caused by cisplatin.

VCAM-1 = test: Western blot of VCAM-1 in kidney tissues after cisplatin; type: in vivo, mouse; settings: kidney tissues of WT mice administered cisplatin
Description: (§4) An investigation was performed to see if the expression of ICAM-1 and VCAM-1 genes, which are molecules related to inflammatory response, in an experimental group administered cisplatin is regulated by an SIRT2 gene. Western blotting was performed by the method of the above Example 11, using ICAM-1 (Santa Cruz Biotechnology, Santa Cruz, Calif., US) and VCAM-1 (Santa Cruz Biotechnology, Santa Cruz, Calif., US) antibodies.

acetyl p53 = test: Western blot of acetyl p53 in kidney tissues after cisplatin; type: in vivo; settings: kidney of mouse having SIRT2 treated with cisplatin
Description: (§5) Generally, kidney injuries caused by cisplatin are affected by apoptosis. To determine the effect of SIRT2 gene knockout on controlling apoptosis caused by cisplatin, the acetylation of caspase-3 and p53 was observed through western blotting.
(§6) Kidney tissues were obtained by the method of the above Example 9-2 and then were homogenized to extract proteins therefrom, and the caspase-3 and acetyl p53 protein expression patterns were determined using caspase-3 and acetyl p53 antibodies (Cell Signaling Technology, Danvers, Mass. US). The same blots were peeled off to determine the exact amount of proteins using actin (Sigma-Aldrich Co. LLC., St Louis, Mo., US) and p53 (Cell Signaling Technology, Inc.).

ICAM-1 = test: Western blot of ICAM-1 in kidney tissues after cisplatin; type: in vivo, mouse; settings: kidney tissues of WT mice administered cisplatin
Description: as §4

caspase-3 = test: Western blot of caspase-3 in kidney tissues after cisplatin; type: in vivo, mouse; settings: kidney tissues of WT mice administered cisplatin
Description: as §5, §6

[4] = used together with cisplatin, compared with cisplatin alone
[5] = SIRT2 inhibitor 10 μM 30 minutes prior to cisplatin 20 μg/ml for 48 hours, compared with cisplatin alone

Row | SMILES | cell proliferation (XTT absorbance) [1, 4] | number of adhesion cells [2, 5] | CXCL2 mRNA expression level (CXCL2) | CCL2 mRNA expression level (CCL2) | cell proliferation (XTT absorbance) ([1]; cisplatin alone) | survival [3] | number of adhesion cells ([2]; cisplatin 20 μg/ml for 48 hours alone) | VCAM-1 expression (VCAM-1) | p53 acetylation (acetyl p53) | ICAM-1 expression (ICAM-1) | cleaved caspase-3 expression (caspase-3)
1 | O=C(Nc1cccc2ncccc12)/C(O)=C/c1ccc(-c2cc(Cl)ccc2Cl)o1 [AGK2] | significantly increased | significantly increased | – | – | – | – | – | – | – | – | –
2 | O=C(Nc1cccc([N+](=O)[O-])c1)c1cccc(S(=O)(=O)N2CCCCCC2)c1 [AK-1] | significantly increased | significantly increased | decrease | decrease | – | – | – | – | – | – | –
3 | N.N.[Cl][Pt][Cl] [cisplatin, cis-diammine-dichloroplatinum [II]] | – | – | – | – | decreased | all mice died in 6 days | decreased | increased | increased | increased | increased
